According to patent US4180564A, “A-38533 Antibiotics and process for production thereof” (Eli Lilly and Company, priority 1978, dated 1979):
Values after ≈ are worked out from the molar mass of the structure shown.

Assays:
P. aeruginosa = experiment: In vivo antimicrobial activity, P. aeruginosa infection in mice; settings: Pseudomonas aeruginosa, sc
From the text: The A-38533 antibiotics have shown in vivo antimicrobial activity against experimental bacterial infections. […] Bacteriol. 81, 233-235 (1961)]. The LD50 values in Table XI refer to the infecting challenge of the pathogen, the measure being the number by which the LD50 (ip) of the infecting organism is multiplied.

Pseudomonas aeruginosa = experiment: In vitro activity, standard agar-dilution test (MIC); type: cell-based
From the text: The A-38533 antibiotics inhibit the growth of certain gram-negative pathogenic organisms, particularly Pseudomonas species. The minimal inhibitory concentrations (MIC's) at which the A-38533 factors A1, A2, B and C inhibit various strains of Pseudomonas aeruginosa and Neisseria gonorrhea, as determined by standard agar-dilution tests, are summarized in Table X.

| SMILES | ED50 (P. aeruginosa; Test A, P. aeruginosa X239, SC, ×3 doses, challenge 76 × LD50 (ip)) [mg/kg] | ED50 (P. aeruginosa; Test B, P. aeruginosa 24J, ×3 doses, challenge 7.6 × LD50 (ip)) [mg/kg] | ED50 (P. aeruginosa; Test C, P. aeruginosa 24J, ×3 doses, challenge 21.5 × LD50 (ip)) [mg/kg] | MIC (Pseudomonas aeruginosa; strain 4276) [µg/mL] | MIC (Pseudomonas aeruginosa; strain PA103) [µg/mL] | MIC (Pseudomonas aeruginosa; strain PI23) [µg/mL] | MIC (Pseudomonas aeruginosa; strain PS9) [µg/mL] | MIC (Pseudomonas aeruginosa; strain PS15) [µg/mL] | MIC (Pseudomonas aeruginosa; strain PS25) [µg/mL] | MIC (Pseudomonas aeruginosa; strain X48) [µg/mL] | MIC (Pseudomonas aeruginosa; strain X239) [µg/mL] | MIC (Pseudomonas aeruginosa; strain X528) [µg/mL] | ED50 (P. aeruginosa; Test A, P. aeruginosa X239, SC, ×2 doses, challenge 76 × LD50 (ip)) [mg/kg] | ED50 (P. aeruginosa; Test B, P. aeruginosa 24J, ×2 doses, challenge 7.6 × LD50 (ip)) [mg/kg] | ED50 (P. aeruginosa; Test C, P. aeruginosa 24J, ×2 doses, challenge 21.5 × LD50 (ip)) [mg/kg] |
| --- | --- | --- | --- | --- | --- | --- | --- | --- | --- | --- | --- | --- | --- | --- | --- |
| CC1(C)S[C@@H]2[C@H](NC(=O)C(C(=O)O)c3ccccc3)C(=O)N2[C@H]1C(=O)O (stereo partly drawn) [Carbenicillin] | 29.3 | 31.9 | 57.5 | 128 (≈ 338 µM) | 32 (≈ 84.6 µM) | 32 (≈ 84.6 µM) | 32 (≈ 84.6 µM) | 16 (≈ 42.3 µM) | 64 (≈ 169 µM) | 16 (≈ 42.3 µM) | 32 (≈ 84.6 µM) | 16 (≈ 42.3 µM) | – | – | – |
| NC[C@H]1O[C@H](O[C@H]2[C@H](O)[C@@H](O[C@H]3O[C@H](CO)[C@@H](O)[C@H](N)[C@H]3O)[C@H](N)C[C@@H]2N)[C@H](N)C[C@@H]1O [Tobramycin] | – | – | – | – | – | – | – | – | – | – | – | – | 0.4 | 0.4 | 0.6 |
